Here are results for three compounds from US10689327B2, “Prodrug amino acid derivative” (TAISHO PHARMACEUTICALS CO., LTD., priority 2016, dated 2020).

The pIC50 is the negative decadic logarithm of the IC50, by convention in mol/L. Low readings indicate a high IC50, high ones a low IC50.

Molecules are shown by their SMILES. pIC50: −log10 of the molar value.

Assay [1] has as its target human metabotropic glutamate receptor mGluR2 (Homo sapiens (Human), UniProt Q14416). Put plainly: [35S]GTPγS binding test, mGluR2. Conditions: inhibition of glutamate (20 μM)-stimulated [35S]GTPγS specific binding, CHO cell membranes. The format is biochemical. The protocol:
(§1) Test 1 [^35S]GTPγS binding test
(§2) CHO cells stably expressing human metabotropic glutamate receptors mGluR2 and mGluR3 were cultured at 37° C. under 5% CO2 using a Dulbecco's modified Eagle medium [1% proline, 1 mM sodium pyruvate, 1 mM succinic acid, 1 mM disodium succinate, 100 units/mL penicillin, 100 μg/mL streptomycin, 400 (mGluR2) or 300 (mGluR3) μg/mL hygromycin B, 2 mM L-glutamine (added just before use)] containing 10% dialyzed fetal bovine serum. The cells in a confluent state were washed with PBS(−), then dissociated using a cell scraper, and centrifuged at 1000 rpm for 5 minutes at 4° C. to recover the cells. The obtained pellet was suspended in a 20 mM HEPES buffer (pH 7.4) (mGluR2) or 20 mM HEPES buffer containing 1 mM EDTA (pH 7.4) (mGluR3), and the suspension was homogenized in a Teflon® homogenizer and then centrifuged at 48,000×g for 20 minutes at 4° C. to obtain a pellet again. The obtained pellet was subjected to two additional cycles of washing and centrifugation and then homogenized with the buffer described above to obtain a crude membrane fraction. The crude membrane fraction was diluted with a buffer for a binding test (final concentration: 20 mM HEPES, 100 mM NaCl, 10 mM MgCl2, 10 μM GDP, […], 0.1% BSA) (mGluR2) or (final concentration: 20 mM HEPES, 1 mM EDTA, 100 mM NaCl, 10 mM MgCl2, 10 μM GDP, 10 μg/mL saponin, 0.1% BSA) (mGluR3). To the crude membrane fraction containing 10 μg of membrane proteins/assay, Compounds (II)-1 to (II)-15 were each added, and the mixture was incubated at 30° C. for 20 minutes. Then, glutamate (final concentration: 20 (mGluR2) or 1 (mGluR3) μM) and [^35S]GTPγS (final concentration: 0.15 nM) were added thereto, and the mixture was incubated at 30° C. for 1 hour. The solution thus incubated was filtered by suction onto Whatman GF/C filter, and the filter was washed with 1000 μL of an ice-cooled 20 mM HEPES buffer (pH 7.4) (mGluR2) or 20 mM HEPES buffer containing 1 mM EDTA (pH 7.4) (mGluR3). A scintillation cocktail was added to the obtained filter, and the membrane binding radioactivity was measured using a liquid scintillation counter. The residual radioactivity in the absence of glutamate was defined as nonspecific binding, and the difference from the residual radioactivity in the presence of glutamate was defined as specific binding. From the percent inhibition of specific binding at varying concentrations of Compounds (II)-1 to (II)-15, an inhibition curve was obtained using nonlinear analysis. The concentrations at which Compounds (II)-1 to (II)-15 inhibited 50% of specific binding (IC50) were calculated from the inhibition curve.
On the technique in general: Binding of GTPγS marks nucleotide exchange on a G protein.

The target of assay [2] is human metabotropic glutamate receptor mGluR3 (Homo sapiens (Human), UniProt Q14832). The assay is described as follows: [35S]GTPγS binding test, mGluR3. The format is biochemical. The settings on record: inhibition of glutamate (1 μM)-stimulated [35S]GTPγS specific binding, CHO cell membranes. The procedure:
as §1, §2

The next assay deals with mGlu2 receptor (Homo sapiens (Human), UniProt Q14416). Conditions: reported in literature; cited from earlier work.
Chain of mGlu2 receptor (Q14416 19-872): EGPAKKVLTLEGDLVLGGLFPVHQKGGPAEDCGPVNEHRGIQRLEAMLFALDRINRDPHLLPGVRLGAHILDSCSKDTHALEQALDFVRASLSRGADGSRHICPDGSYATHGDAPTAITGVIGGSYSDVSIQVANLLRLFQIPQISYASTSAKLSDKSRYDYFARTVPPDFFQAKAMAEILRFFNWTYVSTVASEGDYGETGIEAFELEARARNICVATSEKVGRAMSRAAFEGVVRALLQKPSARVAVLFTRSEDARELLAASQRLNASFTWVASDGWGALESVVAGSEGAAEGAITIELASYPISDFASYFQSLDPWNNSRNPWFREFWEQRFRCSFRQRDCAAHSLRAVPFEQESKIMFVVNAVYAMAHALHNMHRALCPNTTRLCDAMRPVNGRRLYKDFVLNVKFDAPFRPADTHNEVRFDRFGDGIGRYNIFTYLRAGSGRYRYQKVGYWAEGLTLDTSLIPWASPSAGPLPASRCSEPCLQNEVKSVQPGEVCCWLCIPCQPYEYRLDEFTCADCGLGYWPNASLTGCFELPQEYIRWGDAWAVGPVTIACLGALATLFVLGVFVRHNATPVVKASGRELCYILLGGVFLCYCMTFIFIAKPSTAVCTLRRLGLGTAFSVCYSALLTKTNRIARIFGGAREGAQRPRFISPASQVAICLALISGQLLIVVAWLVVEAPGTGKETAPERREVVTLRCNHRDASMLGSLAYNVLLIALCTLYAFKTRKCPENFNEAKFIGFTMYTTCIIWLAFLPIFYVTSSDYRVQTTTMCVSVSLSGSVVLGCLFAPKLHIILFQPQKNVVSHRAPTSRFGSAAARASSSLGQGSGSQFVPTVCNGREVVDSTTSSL
Another assay concerns the target mGlu3 receptor (Homo sapiens (Human), UniProt Q14832). Conditions: reported in literature; cited from earlier work.
A further assay relates to rats. Conditions: 1 mg/kg; cited from earlier work.
In another assay the test system is mice. The settings on record: cited from earlier work.

Chain of human metabotropic glutamate receptor mGluR2 (Q14416 19-872): as above
Chain of human metabotropic glutamate receptor mGluR3 (Q14832 23-879): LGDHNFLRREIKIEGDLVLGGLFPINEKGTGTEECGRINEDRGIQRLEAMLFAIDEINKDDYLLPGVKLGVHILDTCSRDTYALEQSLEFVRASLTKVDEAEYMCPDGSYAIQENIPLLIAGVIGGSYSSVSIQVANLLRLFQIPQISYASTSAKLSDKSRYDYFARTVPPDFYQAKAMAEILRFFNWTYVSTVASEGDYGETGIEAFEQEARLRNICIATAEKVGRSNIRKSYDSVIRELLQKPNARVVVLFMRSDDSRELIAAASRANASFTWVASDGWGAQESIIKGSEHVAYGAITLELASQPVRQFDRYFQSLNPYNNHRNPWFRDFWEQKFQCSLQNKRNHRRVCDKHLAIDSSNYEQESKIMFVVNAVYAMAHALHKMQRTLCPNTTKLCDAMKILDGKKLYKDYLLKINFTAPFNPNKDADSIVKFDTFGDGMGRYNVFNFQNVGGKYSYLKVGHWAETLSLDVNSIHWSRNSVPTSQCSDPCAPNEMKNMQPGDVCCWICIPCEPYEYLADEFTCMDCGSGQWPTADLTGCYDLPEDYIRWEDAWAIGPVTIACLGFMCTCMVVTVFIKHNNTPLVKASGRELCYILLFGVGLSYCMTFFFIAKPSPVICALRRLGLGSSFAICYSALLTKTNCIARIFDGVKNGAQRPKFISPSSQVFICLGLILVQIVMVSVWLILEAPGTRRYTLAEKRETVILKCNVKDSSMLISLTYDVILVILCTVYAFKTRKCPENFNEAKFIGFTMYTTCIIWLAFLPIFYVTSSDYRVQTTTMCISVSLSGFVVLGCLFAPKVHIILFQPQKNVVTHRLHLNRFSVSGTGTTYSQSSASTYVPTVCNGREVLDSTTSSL
Chain of mGlu3 receptor (Q14832 23-879): as above

For `N[C@]1(C(=O)O)[C@H]2[C@@H](C[C@H]1OCc1ccc(F)cc1)[C@]2(F)C(=O)O` [Compound (II)-1, (1R,2R,3R,5R,6R)-2-amino-6-fluoro-3-[(4-fluorophenyl)methoxy]bicyclo[3.1.0]hexane-2,6-dicarboxylic acid], the pIC50 in assay [1] and in assay [2] was 7.44 throughout. At mGlu2 receptor, the “antagonistic activity (mGlu2 receptor)” value is on record as at most 500 nM.
With `N[C@]1(C(=O)O)[C@H]2[C@@H](C[C@H]1OCc1ccc(F)c(F)c1)[C@]2(F)C(=O)O` [Compound (II)-2, (1R,2R,3R,5R,6R)-2-amino-3-[(3,4-difluorophenyl)methoxy]-6-fluorobicyclo[3.1.0]hexane-2,6-dicarboxylic acid], the pIC50 was 7.73 in assay [1] and 7.83 in assay [2]. At mGlu2 receptor, the “antagonistic activity (mGlu2 receptor)” value is on record as at most 500 nM.
On to `N[C@]1(C(=O)O)[C@H]2[C@@H](C[C@H]1OCc1ccc(Cl)c(Cl)c1)[C@]2(F)C(=O)O` [MGS0039], for which the “antagonistic activity (mGlu2 receptor)” value at mGlu2 receptor is reported as 20 nM. Moreover, the “antagonistic activity (mGlu3 receptor)” value on mGlu3 receptor was 24 nM. Further, the “immobility time in the forced swimming test” value in the assay with rats is “sufficient to suppress immobility time”. In the assay on mice, the “immobility time in the tail suspension test” value was “shortens immobility time”.
